In one assay the test system is DS-RED expression. The assay is described as follows: DS-RED induction in soybean T0 leaf discs floated on ethametsulfuron. It counts as in vivo. The settings on record: soybean T0 leaf discs of experimental plants (pPHP46864, amiRNA) vs control pPHP46916; 0.05 ppm or 0.5 ppm, 3-4 days. The source says: (§1) The first, a control construct, pPHP46916 (10,904 bp) (SEQ ID NO: 2111) contains the following cassettes: cassette A comprising a Glycine max s-adenosylmethionine promoter operably linked to the Glycine max acetolactate synthase gene with HrA mutations operably linked to a Glycine max acetolactate synthase terminator (this cassette serves as a selectable marker during plant transformation; position 81-4062); followed by cassette B comprising the T7 promoter operably linked to hygromycin phosphotransferase operably linked to a T7 terminator (which serves as a selectable marker in E. coli, positions 5448-6586); followed by cassette C comprising a cauliflower mosaic virus 35S promoter with three copies of the TET operator embedded operably linked to DS-RED Express that has the potato LS1 intron; operably linked to the cauliflower mosaic virus 35S terminator (position 6862-8455), followed by cassette D comprising the Glycine max elongation factor 1a2 promoter operably linked to the repressor protein ESR (L10-B7) operably linked to the nos terminator (position 8474-10893). The second, experimental construct, pPHP46864 (11,868 bp) (SEQ ID NO:2112) is exactly the same except embedded within the potato LS1 intron at the Mfe1 site is a 964 bp cassette containing the Glycine max microRNA precursor 159 containing a microRNA that targets the repressor protein. […]

For a further assay, the system named is DsRED gene expression. The assay is described as follows: DsRED induction in transgenic tobacco leaf disks and T1 seedlings with Ethametsulfuron. It counts as in vivo, Nicotiana tabacum. The settings on record: T1 seeds germinated on 1 ppm Ethametsulfuron, monitored thru four leaf stage. From the text: A summary of the constructs shown in FIG. 4 is provided below in table 29. All vectors contain a right border (RB) proximal 35S::3xtetO-DsRED-UBQ3 inducible reporter cassette, a 35S::1xtetO-EsR(L13-32)-UBQ14 repressor cassette, and a SAMS-HRA-ALS left border (LB) proximal selectable marker. Inserted either upstream (pHD1194-1196) or downstream ([…]) of the repressor cassette are MMV::3xOp-siRNA^rep-Pin2 cassettes composed of an inverted repeat of the full length repressor coding region (no ATG-pHD1194 and 1197) or limited to the 5′ (pHD1195 & 1198) or 3′ (pHD1196 & 1199) halves of the SU repressor coding region linked by an intron spacer region. The MMV::tetO promoter was chosen so as not to cause silencing of the 35S::tetO promoter controlling target transgene expression. In this particular example the spacer region is the potato ST-LS1 gene intron IV2 (Construction of an intron-containing marker gene: splicing of the intron in transgenic plants and its use in monitoring early events in Agrobacterium-mediated plant transformation. Vancanneyt et al. (1990) Mol Gen Genet. 220(2):245-50). […] Nine fully derepressed DsRED positive seedings for each event were then transplanted into soil and their fluorescence phenotype monitored thru the four leaf developmental stage. […]

The subject of a further assay is DS-red signal. As to the kind of experiment: DS-red signal in soybean T1 plants from seed imbibed with chlorsulfuron. It counts as in vivo. To be noted: T1 seed imbibed with 1 ppm, two weeks.
Text: as §1

Molecules are shown by their SMILES.

For `CCOc1nc(NC)nc(NC(=O)NS(=O)(=O)c2ccccc2C(=O)OC)n1` [Ethametsulfuron, Ethametsulfuron-methyl], the “pattern of DS-RED expression in inducible leaf discs” value with DS-RED expression was “smoother, more even pattern of expression”. The DsRED expression signal entry in the assay with DsRED gene expression (pHD1180 control tobacco events (no siRNA cassette)) was “modest and diminishes”. The DsRED intensity level entry with DsRED gene expression (tobacco lines containing the MMV::tetO-siRNArep cassette (pHD1194-1199)) was “high and remains so with time”.
Take `COc1nc(C)nc(NC(=O)NS(=O)(=O)c2ccccc2Cl)n1` [chlorsulfuron]: the DS-red signal entry in the assay with DS-red signal (control soybean plants (pPHP46916)) is reported as “no DS-red signal found in root, stem or cotyledon”; with DS-red signal (experimental soybean plants (pPHP46864, amiRNA)) it was “weak DS-red signal”.
